Measurements taken from patent US12084445B2, “Broad-spectrum carbapenems” (VenatoRx Pharmaceuticals, Inc., priority 2018, dated 2024).
Read-outs that look alike come from different tables or passages of the source.

Assays:
Type in all cases: cell-based
[1] = test system: S. aureus ATCC 33591 (methicillin-resistant); experiment: broth microdilution MIC assay, S. aureus ATCC 33591; conditions: Staphylococcus aureus
Method: (§1) To determine the ability of test compounds to potentiate the inhibition of the growth of bacterial strains, classic cell-based broth microdilution MIC assays were employed. MIC assays are performed according to CLSI methods except where otherwise noted (CLSI, 2011 and CLSI, 2009). The reference strains S. aureus ATCC 29213 (methicillin sensitive), S. aureus ATCC 33591 (methicillin-resistant), E. coli ATCC 25922 (wild-type/QC strain), P. aeruginosa ATCC 27853 (wild-type/QC strain), and the clinical isolate P. aeruginosa PA 8 were used to determine the ability of the exemplary carbapenem compounds to inhibit bacterial growth. An expanded panel of methicillin resistance S. aureus (MRSA) and Pseudomonas was also used to determine the ability of exemplary carbapenem compounds to inhibit bacterial growth across a broader representation of those species. To determine activity in MRSA and in addition to S. aureus ATCC 33591, S. aureus USA 300, USA 400 and USA 600, some of the most common clones found to cause human infection, were also used. To further gauge the impact on the carbapenem compounds due to various resistance mechanisms in Pseudomonas, the following strains were included: P. aeruginosa 35151 (hyper-permeable strain), P. aeruginosa AmexAB-OprM (an efflux pump knockout), and P. aeruginosa PA 3 (a clinical isolate of reduced carbapenem susceptibility). Briefly, cryo-preserved bacterial cultures of clinical strains are streaked for isolation on appropriate agar medium, in this case Mueller Hinton II agar. Following incubation to allow formation of colonies, these plates are sealed with parafilm and stored refrigerated for up to two weeks. For preparation of assay inocula and to ensure low variability, at least 5 colonies are picked from the agar plates with an inoculating loop and aseptically transferred to a culture tube containing 3 mL of Mueller-Hinton Broth (supplemented with divalent cations to required levels based on Manufacturers' specification). The broth culture is grown for 3-5 hours at 37° C. with shaking at 200 rpm. Meanwhile, 2-fold serial dilutions of test compounds are conducted in a 96 well plate with a final volume of 75 μL per well at 2-fold the final desired concentration. After the dilution plates are set up the growing cultures are then diluted in a cuvette containing MH II broth and the optical density is measured at 600 nm. Inocula are diluted such that 75 μL of this culture in Mueller-Hinton Broth results in a starting bacterial concentration of 5×10^5 CFU/mL when added to the dilution plates. The plates are incubated 16-20 hours at 37° C. The MIC is read visually as the lowest concentration well with no bacterial growth.
(§2) Representative results are shown in Tables 3, 4, and 5 where A represents an MIC>32 μg/mL, B represents an MIC between 8 and 32 μg/mL inclusive, C represents an MIC between 1 and 4 μg/mL inclusive, and D represents an MIC of <1 μg/mL. NT=Not Tested.

[2] = test system: E. coli ATCC 25922 (wild-type/QC strain); experiment: broth microdilution MIC assay, E. coli ATCC 25922; conditions: Escherichia coli
Method: as §1, §2

[3] = test system: P. aeruginosa ATCC 27853 (wild-type/QC strain); experiment: broth microdilution MIC assay, P. aeruginosa ATCC 27853; conditions: Pseudomonas aeruginosa
Method: as §1, §2

[4] = test system: clinical isolate P. aeruginosa PA 8; experiment: broth microdilution MIC assay, P. aeruginosa PA 8; conditions: Pseudomonas aeruginosa; Table 3; P. aeruginosa PA8
Method: as §1, §2

S. aureus USA 300 = experiment: broth microdilution MIC assay, S. aureus USA 300; conditions: Staphylococcus aureus
Method: as §1, §2

S. aureus USA600 = experiment: broth microdilution MIC assay, S. aureus USA 600; conditions: Staphylococcus aureus
Method: as §1, §2

[5] = test system: P. aeruginosa 35151 (hyper-permeable strain); experiment: broth microdilution MIC assay, P. aeruginosa 35151; conditions: Pseudomonas aeruginosa, read-out: P. aeruginosa 35151 MIC
Method: as §1, §2

[6] = test system: P. aeruginosa ΔmexAB-OprM (an efflux pump knockout); experiment: broth microdilution MIC assay, P. aeruginosa ΔmexAB-OprM; conditions: Pseudomonas aeruginosa, 20 h, read-out: P. aeruginosa ΔmexAB-OprM MIC
Method: as §1, §2

[7] = ATCC33591, Table 4, S. aureus 33591, read-out: S. aureus 33591 MIC
[8] = ATCC25922, Table 4, E. coli 25922, read-out: E. coli 25922 MIC
[9] = ATCC27853, Table 5, P. aeruginosa 27853, read-out: P. aeruginosa 27853 MIC
[10] = Table 4, S. aureus USA300, read-out: S. aureus USA300 MIC
[11] = Table 4, S. aureus USA600, read-out: S. aureus USA600 MIC

| MIC ([1]; ATCC 33591 / MRSA, Table 3, S. aureus 33591 (MRSA), read-out: S. aureus 33591 (MRSA) MIC) | MIC ([2]; ATCC25922, Table 3, E. coli 25922, read-out: E. coli 25922 MIC) | MIC ([3]; ATCC27853, Table 3, P. aeruginosa 27853, read-out: P. aeruginosa 27853 MIC) | MIC [4] | Compound | MIC [1, 7] | MIC [2, 8] | MIC [3, 9] | MIC (S. aureus USA 300; [10]) | MIC (S. aureus USA600; [11]) | MIC [5] | MIC [6] | MIC ([1]; ATCC33591, read-out: S. aureus 33591 MIC) | MIC ([2]; ATCC25922, read-out: E. coli 25922 MIC) | MIC ([3]; ATCC27853, read-out: P. aeruginosa 27853 MIC) | MIC (S. aureus USA 300; USA300, read-out: S. aureus USA300 MIC) | MIC (S. aureus USA600; USA600, read-out: S. aureus USA600 MIC) |
| --- | --- | --- | --- | --- | --- | --- | --- | --- | --- | --- | --- | --- | --- | --- | --- | --- |
| 1 to 4 µg/mL | < 1 µg/mL | 8 to 32 µg/mL | 8 to 32 µg/mL | C[C@@H](O)[C@H]1C(=O)N2C(C(=O)O)=C(S[C@@H]3CCN(Cc4ccc(C(N)CN)cc4)C3)[C@H](C)[C@H]12 (stereo partly drawn) [Example 34, (4R,5S,6S)-3-(((3R)-1-(4-(1,2-diaminoethyl)benzyl)pyrrolidin-3-yl)thio)-6-((R)-1-hydroxyethyl)-4-methyl-7-oxo-1-azabicyclo[3.2.0]hept-2-ene-2-carboxylic acid] | – | – | – | – | – | – | – | – | – | – | – | – |
| – | – | – | – | C[C@@H](O)[C@H]1C(=O)N2C(C(=O)O)=C(S[C@@H]3CCN(CC4CCN(C)CC4)C3)[C@H](C)[C@H]12 [Example 39, (4R,5S,6S)-6-((R)-1-hydroxyethyl)-4-methyl-3-(((R)-1-((1-methylpiperidin-4-yl)methyl)pyrrolidin-3-yl)thio)-7-oxo-1-azabicyclo[3.2.0]hept-2-ene-2-carboxylic acid] | 1 to 4 µg/mL | < 1 µg/mL | 1 to 4 µg/mL | 1 to 4 µg/mL | 1 to 4 µg/mL | < 1 µg/mL | 1 to 4 µg/mL | – | – | – | – | – |
| – | – | – | – | C[C@@H](O)[C@H]1C(=O)N2C(C(=O)O)=C(S[C@@H]3CCN(CC4CCN(CCO)CC4)C3)[C@H](C)[C@H]12 [Example 40, (4R,5S,6S)-6-((R)-1-hydroxyethyl)-3-(((R)-1-((1-(2-hydroxyethyl)piperidin-4-yl)methyl)pyrrolidin-3-yl)thio)-4-methyl-7-oxo-1-azabicyclo[3.2.0]hept-2-ene-2-carboxylic acid] | 8 to 32 µg/mL | < 1 µg/mL | 1 to 4 µg/mL | 1 to 4 µg/mL | 1 to 4 µg/mL | < 1 µg/mL | 1 to 4 µg/mL | – | – | – | – | – |
| – | – | – | – | C[C@@H](O)[C@H]1C(=O)N2C(C(=O)O)=C(S[C@@H]3CCN(CC4CCN(CC(N)=O)CC4)C3)[C@H](C)[C@H]12 [Example 41, (4R,5S,6S)-3-(((R)-1-((1-(2-amino-2-oxoethyl)piperidin-4-yl)methyl)pyrrolidin-3-yl)thio)-6-((R)-1-hydroxyethyl)-4-methyl-7-oxo-1-azabicyclo[3.2.0]hept-2-ene-2-carboxylic acid] | 8 to 32 µg/mL | < 1 µg/mL | 8 to 32 µg/mL | 1 to 4 µg/mL | 1 to 4 µg/mL | < 1 µg/mL | 1 to 4 µg/mL | – | – | – | – | – |
| – | – | – | – | C[C@@H](O)[C@H]1C(=O)N2C(C(=O)O)=C(S[C@@H]3CCN(CC4CCNCC4F)C3)[C@H](C)[C@H]12 (stereo partly drawn) [Example 45, (4R,5S,6S)-3-(((3R)-1-((3-fluoropiperidin-4-yl)methyl)pyrrolidin-3-yl)thio)-6-((R)-1-hydroxyethyl)-4-methyl-7-oxo-1-azabicyclo[3.2.0]hept-2-ene-2-carboxylic acid] | – | – | – | – | – | < 1 µg/mL | 1 to 4 µg/mL | 1 to 4 µg/mL | < 1 µg/mL | 1 to 4 µg/mL | 1 to 4 µg/mL | 1 to 4 µg/mL |
| – | – | – | – | C[C@@H](O)[C@H]1C(=O)N2C(C(=O)O)=C(S[C@@H]3CCN(CC4CCNCC4(F)F)C3)[C@H](C)[C@H]12 (stereo partly drawn) [Example 46, (4R,5S,6S)-3-(((3R)-1-((3,3-difluoropiperidin-4-yl)methyl)pyrrolidin-3-yl)thio)-6-((R)-1-hydroxyethyl)-4-methyl-7-oxo-1-azabicyclo[3.2.0]hept-2-ene-2-carboxylic acid] | 8 to 32 µg/mL | < 1 µg/mL | 8 to 32 µg/mL | 1 to 4 µg/mL | 1 to 4 µg/mL | < 1 µg/mL | 1 to 4 µg/mL | – | – | – | – | – |
